Assay results as given in patent US4727080A, “1-substituted derivatives of 6-fluoro-7-(pyrrol-1-yl)-1,4-dihydro-4-oxoquinoline-3-carboxylic acid, their preparation and their application as drugs” (Provesan S.A., priority 1984, dated 1988).
≈ marks a conversion by molar mass, not a printed value.

Key:
[1] = test system: Citrobacter freundii ATCC 11606; assay: "In vitro" MIC, Citrobacter freundii; assay type: cell-based; details: ATCC11606; Citrobacter freundii ATCC 11606; dextrose agar, 37° C., 20 hours; read-out: "In vitro" MIC
Procedure: (§1) Antimicrobial pharmacological activity (G. L. Daquet and Y. A. Chabbect, Techniques en bacteriologie (Techniques in bacteriology), vol. 3, Flammarion Medecine-Sciences, Paris, 1972, and W. B. Hugo and A. D. Rusell, Pharmaceutical Microbiology, Blackwell Scientific Publications, London (1977).
Citrobacter freundii ATCC 11606
(§2) A streak culture of each of the microorganisms is formed in tubes of antibiotics agar no. 1 and incubated for 20 hours at 37° C. A culture loop is then taken and a culture is formed in a tryptone-soya broth and incubated for 20 hours at 37° C. The resulting culture is diluted to 1/4 with Ringer's physiological solution to give a standardized suspension of 10^5 ufc/ml for each organism.
(§3) Starting from a solution of 1000 μg/ml in 0.1N NaOH, each product is diluted successively in dextrose agar (melted beforehand and kept at 50° C.) to give the following concentrations: 64-32-16-8-4-2-1-0.5-0.25-0.125 μg of derivative/ml of medium.
(§4) After this, each concentration of each product is divided up into Petri dishes of 10 cm diameter at a rate of 10 ml of medium per dish and using as many dishes as there are microorganisms to be tested.
(§5) Once the medium has cooled, the dishes are treated with the inoculations at a rate of 0.4 ml of inoculation per dish. They are spread out with a Drigalski loop and the supernatant is collected. The inoculated dishes are incubated at 37° C. for 20 hours.

Shigella flexnerii = assay: "In vitro" MIC, Shigella flexnerii; assay type: cell-based; details: 20 h, read-out: "In vitro" MIC
Procedure: as §1, §2, §3, §4, §5

[2] = test system: Pseudomonas aeruginosa ADSA 47; assay: "In vitro" MIC, Pseudomonas aeruginosa ADSA 47; assay type: cell-based; details: ADSA47; Pseudomonas aeruginosa ADSA 47; dextrose agar, 37° C., 20 hours; read-out: "In vitro" MIC
Procedure: as §1
Pseudomonas aeruginosa ADSA 47
as §2, §3, §4, §5

[3] = test system: Klebsiella pneumoniae ATCC 10031; assay: "In vitro" MIC, Klebsiella pneumoniae; assay type: cell-based; details: ATCC10031; Klebsiella pneumoniae ATCC 10031; dextrose agar, 37° C., 20 hours; read-out: "In vitro" MIC
Procedure: as §1
Klebsiella pneumoniae ATCC 10031
as §2, §3, §4, §5

[4] = test system: Pseudomonas aeruginosa 25115; assay: "In vitro" MIC, Pseudomonas aeruginosa 25115; assay type: cell-based; details: Pseudomonas aeruginosa 25115; dextrose agar, 37° C., 20 hours; read-out: "In vitro" MIC
Procedure: as §1
Pseudomonas aeruginosa 25115
as §2, §3, §4, §5

Escherichia coli R-1513 = assay: "In vitro" MIC, Escherichia coli R-1513; assay type: cell-based; details: R1513; Escherichia coli R-1513; dextrose agar, 37° C., 20 hours; read-out: "In vitro" MIC
Procedure: as §1, §2, §3, §4, §5

Acute toxicity to mice = details: mouse, in vivo, ip, suspension in 5% gum arabic, mortality over 7 days
Procedure: The experimental animals used to determine this toxicity were albino mice of the C.F.L.P. strain and of both sexes, weighing between 19 and 25 grams. After an 18-hour fasting period with water "ad libitum", the derivatives forming the subject of the present invention are administered intraperitoneally as a suspension in 5% gum arabic. The volume of suspension administered was 0.4 ml/20 grams (20 ml/kg) in all cases, the concentration of the suspension being changed according to the dose administered.
One hour after administration of the derivatives, the animals are given a standard Panlab rat-mouse food. The mortality was observed over a period of 7 days. Differences in mortality between the sexes were not observed with any of the products.

[5] = test system: Enterobacter cloacae CHSP-20; assay: "In vitro" MIC, Enterobacter cloacae; assay type: cell-based; details: CHSP20; Enterobacter cloacae CHSP-20; dextrose agar, 37° C., 20 hours; read-out: "In vitro" MIC
Procedure: as §1
Enterobacter cloacae CHSP-20
as §2, §3, §4, §5

[6] = test system: Enterobacter aerogenes ATCC 15038; assay: "In vitro" MIC, Enterobacter aerogenes; assay type: cell-based; details: Klebsiella aerogenes, ATCC15038; Enterobacter aerogenes ATCC 15038; dextrose agar, 37° C., 20 hours; read-out: "In vitro" MIC
Procedure: as §1
Enterobacter aerogenes ATCC 15038
as §2, §3, §4, §5

[7] = test system: Serratia marcescens ATTC 13880; assay: "In vitro" MIC, Serratia marcescens; assay type: cell-based; details: ATTC13880; Serratia marcescens ATTC 13880; dextrose agar, 37° C., 20 hours; read-out: "In vitro" MIC
Procedure: as §1
Serratia marcescens ATTC 13880
as §2, §3, §4, §5

[8] = test system: Salmonella typhimurium AMES 98; assay: "In vitro" MIC, Salmonella typhimurium AMES 98; assay type: cell-based; details: Salmonella enterica; Salmonella typhimurium AMES 98; dextrose agar, 37° C., 20 hours; read-out: "In vitro" MIC
Procedure: as §1
Salmonella typhimurium AMES 98
as §2, §3, §4, §5

Proteus morganii CHSP-16 = assay: "In vitro" MIC, Proteus morganii; assay type: cell-based; details: Morganella morganii, CHSP16; Proteus morganii CHSP-16; dextrose agar, 37° C., 20 hours; read-out: "In vitro" MIC
Procedure: as §1, §2, §3, §4, §5

[9] = test system: Streptococcus faecalis ATCC 10541; assay: "In vitro" MIC, Streptococcus faecalis; assay type: cell-based; details: Enterococcus faecalis, ATCC10541; Streptococcus faecalis ATCC 10541; dextrose agar, 37° C., 20 hours; read-out: "In vitro" MIC
Procedure: as §1
Streptococcus faecalis ATCC 10541
as §2, §3, §4, §5

[10] = test system: Salmonella typhimurium AMES 100; assay: "In vitro" MIC, Salmonella typhimurium AMES 100; assay type: cell-based; details: Salmonella enterica; Salmonella typhimurium AMES 100; dextrose agar, 37° C., 20 hours; read-out: "In vitro" MIC
Procedure: as §1
Salmonella typhimurium AMES 100
as §2, §3, §4, §5

[11] = test system: Proteus mirabilis ATCC 4675; assay: "In vitro" MIC, Proteus mirabilis; assay type: cell-based; details: ATCC4675; Proteus mirabilis ATCC 4675; dextrose agar, 37° C., 20 hours; read-out: "In vitro" MIC
Procedure: as §1
Proteus mirabilis ATCC 4675
as §2, §3, §4, §5

[12] = test system: Staphylococcus aureus ATCC 5488/23; assay: "In vitro" MIC, Staphylococcus aureus ATCC 5488/23; assay type: cell-based; details: ATCC5488; Staphylococcus aureus ATCC 5488/23; dextrose agar, 37° C., 20 hours; read-out: "In vitro" MIC
Procedure: as §1
Staphylococcus aureus ATCC 5488/23
as §2, §3, §4, §5

[13] = test system: Gram-negative microorganisms; assay: "In vitro" antimicrobial activity compared with nalidixic acid, Gram-negative microorganisms; assay type: cell-based
Procedure: as §1, §2, §3, §4, §5

[14] = test system: Staphylococcus aureus ATCC 25178; assay: "In vitro" MIC, Staphylococcus aureus ATCC 25178; assay type: cell-based; details: ATCC25178; Staphylococcus aureus ATCC 25178; dextrose agar, 37° C., 20 hours; read-out: "In vitro" MIC
Procedure: as §1
Staphylococcus aureus ATCC 25178
as §2, §3, §4, §5

Sarcina lutea ATCC 9341 = assay: "In vitro" MIC, Sarcina lutea; assay type: cell-based; details: Micrococcus luteus, ATCC9341; Sarcina lutea ATCC 9341; dextrose agar, 37° C., 20 hours; read-out: "In vitro" MIC
Procedure: as §1, §2, §3, §4, §5

[15] = test system: Bacillus subtilis ATCC 6633; assay: "In vitro" MIC, Bacillus subtilis; assay type: cell-based; details: ATCC6633; Bacillus subtilis ATCC 6633; dextrose agar, 37° C., 20 hours; read-out: "In vitro" MIC
Procedure: as §1
Bacillus subtilis ATCC 6633
as §2, §3, §4, §5

Gram-positive cocci = assay: "In vitro" antimicrobial activity compared with nalidixic acid, Gram-positive cocci; assay type: cell-based
Procedure: as §1, §2, §3, §4, §5

[16] = test system: Micrococcus flavus ATCC 10240; assay: "In vitro" MIC, Micrococcus flavus; assay type: cell-based; details: ATCC10240; Micrococcus flavus ATCC 10240; dextrose agar, 37° C., 20 hours; read-out: "In vitro" MIC
Procedure: as §1
Micrococcus flavus ATTC 10240
as §2, §3, §4, §5

[17] = test system: Escherichia coli ATCC 10536; assay: "In vitro" MIC, Escherichia coli ATCC 10536; assay type: cell-based; details: ATCC10536; Escherichia coli ATCC 10536; dextrose agar, 37° C., 20 hours; read-out: "In vitro" MIC
Procedure: as §1
Escherichia coli ATCC 10536
as §2, §3, §4, §5

all microorganisms = assay: "In vitro" antimicrobial activity compared with nalidixic acid, all microorganisms; assay type: cell-based; details: against all microorganisms
Procedure: as §1, §2, §3, §4, §5

Row | SMILES | MIC [1] [µg/mL] | MIC (Shigella flexnerii) [µg/mL] | MIC [2] [µg/mL] | MIC [3] [µg/mL] | MIC [4] [µg/mL] | MIC (Escherichia coli R-1513) [µg/mL] | LD50 at 168 h (Acute toxicity to mice) [mg/kg] | MIC [5] [µg/mL] | MIC [6] [µg/mL] | MIC [7] [µg/mL] | MIC [8] [µg/mL] | MIC (Proteus morganii CHSP-16) [µg/mL] | MIC [9] [µg/mL] | MIC [10] [µg/mL] | MIC [11] [µg/mL] | MIC [12] [µg/mL] | MIC [14] [µg/mL] | MIC (Sarcina lutea ATCC 9341) [µg/mL] | MIC [15] [µg/mL] | MIC [16] [µg/mL] | also measured
1 | CCNn1cc(C(=O)O)c(=O)c2cc(F)c(-n3cccc3)cc21 [Example 8, 6-fluoro-7-(pyrrol-1-yl)-1-ethylamino-4-oxo-1,4-dihydroquinoline-3-carboxylic acid] | 4 (≈ 12.7 µM) | 1 (≈ 3.17 µM) | ≥ 32 | 0.25 (≈ 0.793 µM) | 16 (≈ 50.7 µM) | 4 (≈ 12.7 µM) | > 1600 | 1 (≈ 3.17 µM) | 2 (≈ 6.34 µM) | 2 (≈ 6.34 µM) | 0.062 (≈ 0.197 µM) | 4 (≈ 12.7 µM) | 4 (≈ 12.7 µM) | 1 (≈ 3.17 µM) | 8 (≈ 25.4 µM) | 0.25 (≈ 0.793 µM) | 0.25 (≈ 0.793 µM) | 4 (≈ 12.7 µM) | ≤ 0.062 | 2 (≈ 6.34 µM) | activity compared with nalidixic acid [13]: activity of the same order as nalidixic acid; "in vitro" activity compared with nalidixic acid (Gram-positive cocci): greater activity towards Gram-positive cocci; MIC [17]: 0.062 µg/mL (≈ 0.197 µM)
2 | O=C(O)c1cn(C2CC2)c2cc(-n3cccc3)c(F)cc2c1=O [Example 9, 6-fluoro-7-(pyrrol-1-yl)-1-cyclopropyl-1,4-dihydro-4-oxoquinoline-3-carboxylic acid] | 0.25 (≈ 0.801 µM) | 0.2 (≈ 0.64 µM) | 2 (≈ 6.4 µM) | < 0.06 | 1 (≈ 3.2 µM) | 0.12 (≈ 0.384 µM) | > 1600 | 0.12 (≈ 0.384 µM) | 0.12 (≈ 0.384 µM) | 0.5 (≈ 1.6 µM) | 1 (≈ 3.2 µM) | 0.5 (≈ 1.6 µM) | 0.25 (≈ 0.801 µM) | < 0.06 | 0.5 (≈ 1.6 µM) | < 0.06 | < 0.06 | 0.5 (≈ 1.6 µM) | 0.25 (≈ 0.801 µM) | 0.5 (≈ 1.6 µM) | activity compared with nalidixic acid (all microorganisms): greater than the activity of nalidixic acid; MIC [17]: < 0.06 µg/mL
3 | CCCn1cc(C(=O)O)c(=O)c2cc(F)c(-n3cccc3)cc21 [Example 5, 6-fluoro-7-(pyrrol-1-yl)-1-propyl-4-oxo-1,4-dihydroquinoline-3-carboxylic acid] | 8 (≈ 25.5 µM) | 4 (≈ 12.7 µM) | 32 (≈ 102 µM) | 0.5 (≈ 1.59 µM) | 32 (≈ 102 µM) | 8 (≈ 25.5 µM) | > 1600 | 4 (≈ 12.7 µM) | 8 (≈ 25.5 µM) | 1 (≈ 3.18 µM) | 1 (≈ 3.18 µM) | 8 (≈ 25.5 µM) | 8 (≈ 25.5 µM) | 1 (≈ 3.18 µM) | 16 (≈ 50.9 µM) | 0.5 (≈ 1.59 µM) | 0.5 (≈ 1.59 µM) | 8 (≈ 25.5 µM) | 0.125 (≈ 0.398 µM) | 8 (≈ 25.5 µM) | activity compared with nalidixic acid [13]: activity of the same order as nalidixic acid; "in vitro" activity compared with nalidixic acid (Gram-positive cocci): greater activity towards Gram-positive cocci; MIC [17]: 0.5 µg/mL (≈ 1.59 µM)
